Source: patent US20120202819A1, “COMBINATION THERAPY USING A BETA 3 […] RECEPTOR AGONISTS AND AN […] AGENT” (Merck Sharp & Dohme Corporation, priority 2009, published 2012)
Read-outs that look alike come from different tables or passages of the source.

What was measured:
[1] = biological target: T1, human β3 adrenergic receptor (Homo sapiens, UniProt P13945); experiment: Functional assay: cAMP production in CHO cells transfected with cloned β-adrenergic receptor; format: cell-based
T1 construct: expressed in transfected cells; host or cells: Chinese hamster ovary (CHO) cells, stably transfected
T1 sequence (P13945 whole entry): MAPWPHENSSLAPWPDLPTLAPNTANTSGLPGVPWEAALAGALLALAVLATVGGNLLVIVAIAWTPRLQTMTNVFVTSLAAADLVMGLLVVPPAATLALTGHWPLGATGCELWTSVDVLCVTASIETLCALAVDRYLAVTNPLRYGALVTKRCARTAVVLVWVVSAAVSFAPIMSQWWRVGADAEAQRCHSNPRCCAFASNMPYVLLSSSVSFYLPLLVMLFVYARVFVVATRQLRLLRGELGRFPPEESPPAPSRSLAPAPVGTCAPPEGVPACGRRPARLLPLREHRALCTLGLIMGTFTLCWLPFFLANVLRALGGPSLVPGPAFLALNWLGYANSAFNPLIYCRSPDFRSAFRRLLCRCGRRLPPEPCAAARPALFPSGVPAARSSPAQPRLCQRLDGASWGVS
Protocol: Biological Assays for β3 Functional Activities: The following in vitro assays are suitable for screening compounds that have selective β3 agonist activity:
Functional Assay: cAMP production in response to ligand is measured according to Barton, et al. (1991, Agonist-induced desensitization of D2 dopamine receptors in human Y-79 retinoblastoma cells. Mol. Pharmacol. […]) modified as follows. cAMP production is measured using a homogenous time-resolved fluorescence resonance energy transfer immunoassay (LANCE™, Perkin Elmer) according to the manufacture's instructions. Chinese hamster ovary (CHO) cells, stably transfected with the cloned 13-adrenergic receptor (β1, β2 or β3) are harvested after 3 days of subculturing. Harvesting of cells is done with Enzyme-free Dissociation Media (Specialty Media). Cells are then counted and resuspended in assay buffer (Hank's Balanced salt solution supplemented with 5 mM HEPES, 0.1% BSA) containing a phosphodiesterase inhibitor (IBMX, 0.6 mM). The reaction is initiated by mixing 6,000 cells in 6 with 6 μL Alexa Fluor labeled cAMP antibody (LANCE™ kit) which is then added to an assay well containing 12 μL of compound (diluted in assay buffer to 2× final concentration). The reaction proceeds for 30 min at room temperature and is terminated by the addition of 24 detection buffer (LANCE™ kit). The assay plate is then incubated for 1 h at room temperature and time-resolved fluorescence measured on a Perkin Elmer Envision reader or equivalent. The unknown cAMP level is determined by comparing fluorescence levels to a cAMP standard curve.
The non-selective, full agonist 13-adrenergic ligand isoproterenol is used at all three receptors to determine maximal stimulation. The human β3 adrenergic receptor (AR) selective ligand (S)-N-[4-[2-[[2-hydroxy-3-(4-hydroxyphenoxy)propyl]amino]ethyl]-phenyl]-4-iodobenzenesulfonamide is used as a control in all assays. […] Data are analyzed using Microsoft Excel and Graphpad Prism or an internally developed data analysis software package.

[2] = test system: EFS-induced isolated detrusor muscle contractions; experiment: EFS-induced contraction of isolated rat detrusor muscle strips, with isobologram analysis; set-up: species or system Sprague-Dawley rats
Protocol: Male adult Sprague-Dawley rats were used. After euthanizing using CO2 gas, a whole bladder was removed. Longitudinal strips (about 6 mm×3 mm) of the extratrigonal portion of the detrusor muscle were prepared. […] The strips were tied at one end to the organ bath, and connected at the other end to an isometric transducer (AD Instruments) under a resting tension of 10 mN. The responses of the preparations were recorded at a sampling rate of 10 Hz by a multiple channel data acquisition system (PowerLab, AD Instruments), and measured with an analysis software (Chart, AD Instruments). After the equilibration period for at least 60 min, each tissue strip was challenged to electrical field stimulation (EFS) at 60 Hz; duration, 0.3 ms; 3 sec; 90 V to induce contractions. Upon obtaining stable contractions with EFS, compound solution (25 μL) was applied into organ bath in a cumulative manner. After 15 min of each compound treatment, EFS was applied.
Isobologram Analysis was used to evaluate the synergic effect of a combination therapy. Isobologram Analysis provides a visual assessment of the interaction of two different agents using independent statistical analysis. The statistical analysis can be accomplished from calculations of certain potency indices from single treatment of each compound and fixed-ratio combinations for the same effect.
Isobologram for some particular effect (e.g., 50% of the maximum) in which the dose of active agent A alone is A=20 and active agent B alone is B=100. The straight line connecting these intercept points (additivity line) is the locus of all dose pairs that, based on these potencies, should give the same effect, An actual dose pair such as point Q attains this effect with lesser quantities and is synergistic (or super-additive), while the dose pair denoted by point R means greater quantities are required and is therefore sub-additive.

bladder capacity = experiment: Bladder capacity (cystometry) in anesthetized rhesus monkeys; format: in vivo, rhesus monkeys (Macaca mulatta); details: mean of 4-6 animals
From the text: Adult female rhesus monkeys (Macaca mulatta) weighed 5.3-6.2 kg (4-7 year-old) were used. The subjects were either paired or individually housed on a 12-h light/12-h dark cycle (lights on at 7:00 AM). Their diet consisted of 2050 Teklad (Harlan Laboratories, Indianapolis, Ind.) and fresh fruit or vegetable. Water was freely available. All animals were observed daily by a veterinary technician and caretakers for signs of ill health. Subjects were repeatedly used with >13-day resting period. Monkeys were anesthetized with an intramuscular injection of either Telazol (3-5 mg/kg) or ketamine (10-20 mg/kg) followed by intravenous constant rate infusion with ketamine (0.2-0,8 mg/kg/min) using a syringe pump (552222, Harvard Apparatus, Holliston, Mass.). Animals were placed in a supine position and a triple lumen balloon transurethral catheter (7.4 Fr, Cook Medical, Bloomington, Ind.) was inserted into the bladder and the balloon was inflated with 1 mL of water to secure the tip of catheter at the bladder base. The catheter was connected with an infusion pump (Gemini PC-2TX, ALARIS Medical Systems, San Diego, Calif.) for bladder filling and a pressure transducer for intravesical pressure monitoring. Intravesical pressure was continuously recorded using a multiple channel data acquisition system (Power lab, AD Instruments, Biopac systems, Colorado Springs, Colo.) at a sampling rate of 20 Hz. After confirming bladder emptiness by an ultrasonography (Logiq e vet, GE Medical Systems, Waukesha, Wis., FIG. 1A), saline was intravesically infused at 15 mL/min. When the steep rise in pressure indicative of the micturition reflex was observed, intravesical infusion was stopped and the bladder was manually emptied with a 60 ml syringe.
After two baseline cystometry readings, drug was intravenously administered three times using a rising dose paradigm with a cystometry performed 10 min after each dose. Bladder capacity was measured for each cystometry and % change from the baseline capacity was calculated. As used herein, the term “baseline capacity” or “baseline” means the average bladder capacity from two pre-dose measurements.
The reported results are mean values of % change from baseline in 4-6 animals.

muscarinic receptor M4 = biological target: T2, muscarinic receptor M4 (Homo sapiens, UniProt P08173); details: Ohtake et al.; cited from earlier work
T2 sequence (P08173 1-479): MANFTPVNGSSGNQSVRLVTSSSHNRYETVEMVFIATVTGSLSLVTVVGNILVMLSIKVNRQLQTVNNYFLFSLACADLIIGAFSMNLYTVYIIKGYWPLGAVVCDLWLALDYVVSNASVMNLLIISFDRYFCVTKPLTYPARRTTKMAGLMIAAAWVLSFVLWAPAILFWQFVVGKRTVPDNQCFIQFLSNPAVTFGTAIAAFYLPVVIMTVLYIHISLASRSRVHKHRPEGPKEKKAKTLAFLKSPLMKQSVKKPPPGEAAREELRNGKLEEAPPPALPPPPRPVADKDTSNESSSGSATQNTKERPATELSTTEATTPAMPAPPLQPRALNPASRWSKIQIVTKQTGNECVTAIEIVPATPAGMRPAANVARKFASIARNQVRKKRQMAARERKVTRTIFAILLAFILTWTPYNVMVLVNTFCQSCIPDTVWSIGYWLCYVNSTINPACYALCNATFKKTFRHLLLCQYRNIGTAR

[3] = cAMP, CHO cells, read-out: human β3 functional activity
[4] = human β3 functional activity, read-out: HUMAN β3 BINDING

Structure (SMILES) | EC50 [1, 3] [nM] | EC50 [1, 4] [nM] | further results
Nc1nc(CC(=O)Nc2ccc(CC3CC[C@H]([C@H](O)c4ccccc4)N3)cc2)cs1 (stereo partly drawn) [Compound 1, 2-(2-Amino-1,3-thiazol-4-yl)-N-[4-({(5R)-[(R)-hydroxy(phenyl)methyl]pyrrolidinyl}methyl)phenyl]acetamide] | 1 to 10 | – | –
Nc1nc(CC(=O)Nc2ccc(C[C@@H]3CC[C@H]([C@H](O)c4ccccc4)N3)cc2)cs1 [Compound 2, 2-(2-Amino-1,3-thiazol-4-yl)-N-[4-({(2S, 5R)-[(R)-hydroxy(phenyl)methyl]pyrrolidinyl}methyl)phenyl]acetamide] | 1 to 10 | – | –
Nc1nc2c(s1)CCC2C(=O)Nc1ccc(C[C@@H]2CC[C@H]([C@H](O)c3ccccc3)N2)cc1 (stereo partly drawn) [Compound 3] | < 1 | – | –
Cc1ncn(C(C)C(=O)Nc2ccc(C[C@@H]3CC[C@H]([C@H](O)c4ccccc4)N3)cc2)n1 (stereo partly drawn) [Compound 11] | 1 to 10 | – | –
O=C(Nc1ccc(C[C@@H]2CC[C@H]([C@H](O)c3ccccc3)N2)cc1)[C@@H]1CCc2cccc(=O)n21 [Compound 12, (3S)-N-[4-({(2S,5R)-5-[(R)-hydroxy(phenyl)methyl]pyrrolidin-2-yl}methyl)phenyl]-5-oxo-1,2,3,5-tetrahydroindolizine-3-carboxamide] | 1 to 10 | – | times less potent than CL316243 (IC25) ([2]; inhibiting EFS-induced contraction of rat bladder strips): ~100 times; IC25 (concentration which induced 25% inhibition of detrusor contraction) ([2]; single compound, rat bladder strips, EFS): 275 nM
O=C(Nc1ccc(C[C@@H]2CC[C@H]([C@H](O)c3ccccc3)N2)cc1)[C@H]1CCc2cccc(=O)n21 [Compound 13, (3R)-N-[4-({(2S,5R)-5-[(R)-hydroxy(phenyl)methyl]pyrrolidin-2-yl}methyl)phenyl]-5-oxo-1,2,3,5-tetrahydroindolizine-3-carboxamide] | < 1 | – | –
O=C(Nc1ccc(C[C@@H]2CC[C@H]([C@H](O)c3ccccc3)N2)cc1)[C@@H]1CCc2nccc(=O)n21 [Compound 14, (6S)-N-[4-({(2S, 5R)-5-[(R)-hydroxy(phenyl)methyl]pyrrolidin-2-yl}methyl)phenyl]-4-oxo-4,6,7,8-tetrahydropyrrolo[1,2-α]pyrimidine-6-carboxamide] | 11 to 100 | – | Bladder capacity, % change from baseline (bladder capacity; mono-therapy 0.003 mg/kg iv): 4.1%; Bladder capacity, % change from baseline (bladder capacity; mono-therapy 0.003 mg/kg iv, listed as Cpd 14): 4.1%; Bladder capacity, % change from baseline (bladder capacity; mono-therapy 0.01 mg/kg iv): 18.0%; Bladder capacity, % change from baseline (bladder capacity; mono-therapy 0.03 mg/kg iv): 27.3%; Bladder capacity, % change from baseline (bladder capacity; mono-therapy 0.1 mg/kg iv): 33.9%; Bladder capacity, % change from baseline (bladder capacity; mono-therapy 0.3 mg/kg iv): 31%; Bladder capacity, % change from baseline (bladder capacity; mono-therapy 1 mg/kg iv): 55.9%
NC(=O)C(c1ccccc1)(c1ccccc1)[C@@H]1CCN(CCc2ccc3c(c2)CCO3)C1 [Darifenacin, (S)-2-[1-[2-(2,3-dihydrobenzofuran-5-yl)ethyl]pyrrolidin-3-yl]-2,2-diphenyl-acetamide] | – | – | Bladder capacity, % change from baseline (bladder capacity; mono-therapy 0.01 mg/kg iv): 8.9%; Bladder capacity, % change from baseline (bladder capacity; mono-therapy 0.03 mg/kg iv): 18.3%; Bladder capacity, % change from baseline (bladder capacity; mono-therapy 0.1 mg/kg iv): 29.4%; Ki (muscarinic receptor M4): 52 ± 15 nM

Now from value to molecule, other results behind:

EC50 [1, 3] [nM] | EC50 [1, 4] [nM] | Structure (SMILES) | further results
– | 1 to 10 | O=C(Cn1cnc2ccccc2c1=O)Nc1ccc(C[C@@H]2CC[C@H]([C@H](O)c3ccccc3)N2)cc1 [Compound 4] | –
– | 1 to 10 | O=C(Cn1ncccc1=O)Nc1ccc(C[C@@H]2CC[C@H]([C@H](O)c3ccccc3)N2)cc1 [Compound 5] | –
– | 1 to 10 | Cc1cnn(CC(=O)Nc2ccc(C[C@@H]3CC[C@H]([C@H](O)c4ccccc4)N3)cc2)c(=O)c1 [Compound 6] | –
– | 1 to 10 | O=C(Cn1ncc2ccccc2c1=O)Nc1ccc(C[C@@H]2CC[C@H]([C@H](O)c3ccccc3)N2)cc1 [Compound 7] | –
– | 1 to 10 | O=C(Cn1cccnc1=O)Nc1ccc(C[C@@H]2CC[C@H]([C@H](O)c3ccccc3)N2)cc1 [Compound 8] | –
– | 1 to 10 | O=C(Cn1cnccc1=O)Nc1ccc(C[C@@H]2CC[C@H]([C@H](O)c3ccccc3)N2)cc1 [Compound 9] | –
– | 1 to 10 | O=C(Cn1ccccc1=O)Nc1ccc(C[C@@H]2CC[C@H]([C@H](O)c3ccccc3)N2)cc1 [Compound 10] | –
